This note sets out measurements from patent US20260226068A1, “IMIDAZOTRIAZINE IL-17A MODULATORS AND USES THEREOF” (DICE ALPHA, INC., priority 2023, published 2026).

Assay [1] deals with T1, IL-17A/F (Homo sapiens, UniProt Q16552+Q96PD4).
T1 construct: purchased R&D Systems
T1 sequence (Q16552 24-155): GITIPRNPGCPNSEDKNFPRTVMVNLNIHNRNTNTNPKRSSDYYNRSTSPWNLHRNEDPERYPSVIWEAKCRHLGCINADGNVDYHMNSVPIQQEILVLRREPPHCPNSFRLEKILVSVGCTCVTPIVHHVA
T1 sequence (Q96PD4 31-163): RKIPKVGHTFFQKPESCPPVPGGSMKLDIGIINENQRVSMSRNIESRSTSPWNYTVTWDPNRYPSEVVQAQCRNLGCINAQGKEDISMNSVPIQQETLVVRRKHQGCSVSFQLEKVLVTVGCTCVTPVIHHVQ
Nature of the assay: IL-17A/F HEK-Blue cell assay (SEAP reporter). The format is cell-based. Conditions: HEK-Blue IL-17A reporter cells, IL17A/F 5 ng/mL, 20 hours, SEAP read at A630; read-out: HEK-Blue IL17AF (IC50 for IL-17A/F inhibition). On the procedure: (§1) The HEK-Blue IL-17A reporter cell line (Fisher #NC 1408637) was used for cell-based IL-17A/A inhibition assays. Cells were grown and prepared for assays according to the manufacturer's instructions. This cell line consists of HEK 293 cells that were designed to expressed IL-17RA, IL-17RC, and the Act1 adapter molecule, the combination of which, when stimulated by IL-17A/A or IL17A/F activates a […] promoter and drives expression of the recombinant Secreted Alkaline Phosphatase (SEAP) gene. Media from the cells is then added to a development reagent (Quanti-Blue Substrate, Fisher #NC971 1613), and read at A630.
(§2) Compounds were dispensed in DMSO to an empty clear 384-well tissue culture plate in a titration ranging from 10 μM to 27 pM, with DMSO added to every well to a final concentration of […]. Cells were then added to the plate (45 μL/well at a concentration of 280,000 cells/mL). IL17A/A (Genscript #Z03228) or IL17A/F (R&D Systems) was added to the plate to a final concentration of 5 ng/mL and a final well volume of 50 μL. The cells, compound, and IL-17A/A or IL17A/F were then incubated for 20 hours before media was removed for SEAP analysis. The resulting inhibition curve was then analyzed using Dotmatics' integrated 4-parameter fit screening protocol to generate IC50 values.
(§3) Table 2 includes IC50 values for IL-17A/A and IL-17A/F inhibition of selected compounds; with compounds having a IC50 of A<100 nM; B 100-1000 nM; and C>1000 nM.

Assay [2] addresses T2, IL-17A/A (Homo sapiens, UniProt Q16552).
T2 construct: purchased Genscript Z03228
T2 sequence (Q16552 24-155): T1 sequence (Q16552 24-155)
Description: IL-17A/A HEK-Blue cell assay (SEAP reporter). Format: cell-based. Conditions: HEK-Blue IL-17A reporter cells, IL17A/A 5 ng/mL, 20 hours, SEAP read at A630; read-out: HEK-Blue IL17AA (IC50 for IL-17A/A inhibition). As to the method:
as §1, §2, §3

`CCn1nccc1C(=O)N[C@H](c1cn2nc(CC3C[C@@H](C(F)(F)F)CNC3=O)c(N3CC4CCC(C3)O4)nc2n1)[C@H]1CC[C@H](C)CC1` (single isomer, unassigned) [Compound 105]: the IC50 in assay [1] was 100 to 1000 nM; in assay [2], < 100 nM.

Turning to `CCn1nccc1C(=O)N[C@H](c1cn2nc(CC3C[C@@H](C(F)(F)F)CNC3=O)c(N3C[C@H]4C[C@@H]3CO4)nc2n1)[C@H]1CC[C@H](C)CC1` (single isomer, unassigned) [Compound 106], the IC50 in assay [1] is > 1000 nM; in assay [2], < 100 nM.

Take `CCn1nccc1C(=O)N[C@H](c1cn2nc(CC3C[C@@H](C(F)(F)F)CNC3=O)c(N3C[C@H]4C[C@@H]3CO4)nc2n1)[C@H]1CC[C@H](C)CC1` (single isomer, unassigned) [Compound 107]: the IC50 in assay [1] is 100 to 1000 nM; in assay [2] it was < 100 nM.

As to `CCn1nccc1C(=O)N[C@H](c1cn2nc(CC3C[C@@H](C(F)(F)F)CNC3=O)c(N3C[C@@H]4C[C@H]3CO4)nc2n1)[C@H]1CC[C@H](C)CC1` (single isomer, unassigned) [Compound 108], the IC50 in assay [1] and in assay [2] was < 100 nM each time.

Turning to `CCn1nccc1C(=O)N[C@H](c1cn2nc(CC3C[C@@H](C(F)(F)F)CNC3=O)c(N3C[C@@H]4C[C@H]3CO4)nc2n1)[C@H]1CC[C@H](C)CC1` (single isomer, unassigned) [Compound 109], the IC50 is 100 to 1000 nM in assay [1] and < 100 nM in assay [2].

For `CCn1nccc1C(=O)N[C@H](c1cn2nc(CC3C[C@@H](C(F)(F)F)CNC3=O)c(N3CCOCC3)nc2n1)C(C1CC1)C1CC1` (single isomer, unassigned) [Compound 111], the IC50 in assay [1] was 100 to 1000 nM; in assay [2], < 100 nM.

With `CCn1nccc1C(=O)N[C@H](c1cn2nc(CC3C[C@@H](C(F)(F)F)CNC3=O)c(N3CCOCC3)nc2n1)C(C1CC1)C1CC1` (single isomer, unassigned) [Compound 112], the IC50 in assay [1] was 100 to 1000 nM; in assay [2] it was < 100 nM.

As for `O=C(N[C@H](c1cn2nc(CC3C[C@@H](C(F)(F)F)CNC3=O)c(N3CCOCC3)nc2n1)C1CCC(F)(F)CC1)c1conc1C1CC1(F)F` (single isomer, unassigned) [Compound 113], the values for the IC50 in assay [1] and in assay [2] were 100 to 1000 nM and < 100 nM, respectively.

As for `O=C(N[C@H](c1cn2nc(CC3C[C@@H](C(F)(F)F)CNC3=O)c(N3CCOCC3)nc2n1)C1CCC(F)(F)CC1)c1conc1C1CC1(F)F` (single isomer, unassigned) [Compound 114], the IC50 is > 1000 nM in assay [1] and < 100 nM in assay [2].

`O=C(N[C@H](c1cn2nc(CC3C[C@@H](C(F)(F)F)CNC3=O)c(N3CCOCC3)nc2n1)C1CCC(F)(F)CC1)c1conc1C1CC1(F)F` (single isomer, unassigned) [Compound 115]: the IC50 in assay [1] was > 1000 nM; in assay [2], < 100 nM.

Regarding `O=C(N[C@H](c1cn2nc(CC3C[C@@H](C(F)(F)F)CNC3=O)c(N3CCOCC3)nc2n1)C1CCC(F)(F)CC1)c1conc1C1CC1(F)F` (single isomer, unassigned) [Compound 116], the IC50 in assay [1] was > 1000 nM; in assay [2], < 100 nM.

As to `C[C@H]1CC[C@H]([C@H](NC(=O)C2(F)CC2)c2cn3nc(CC4C[C@@H](C(F)(F)F)CNC4=O)c(N4CCOCC4)nc3n2)CC1` (single isomer, unassigned) [Compound 118], the figures for the IC50 in assay [1] and in assay [2] were > 1000 nM and 100 to 1000 nM, respectively.

Regarding `C[C@H]1CC[C@H]([C@H](NC(=O)C2(F)CC2)c2cn3nc(CC4C[C@@H](C(F)(F)F)CNC4=O)c(N4CCOCC4)nc3n2)CC1` (single isomer, unassigned) [Compound 120], the IC50 was > 1000 nM in assay [1] and 100 to 1000 nM in assay [2].

As to `CCn1nccc1C(=O)N[C@H](c1cn2nc(CC3C[C@@H](C(F)(F)F)CNC3=O)c(N3CCO[C@H](C)C3)nc2n1)[C@@H]1CCCC(F)(F)C1` (single isomer, unassigned) [Compound 124], the figures for the IC50 in assay [1] and in assay [2] were 100 to 1000 nM and < 100 nM, respectively.

Turning to `O=C(N[C@H](c1cn2nc(C[C@H]3C[C@@H](C(F)(F)F)CNC3=O)c(C3CCCOC3)nc2n1)[C@H]1CCCC(F)(F)C1)c1nonc1C1CC1` (single isomer, unassigned) [Compound 125], the IC50 is > 1000 nM in assay [1] and < 100 nM in assay [2].

`O=C(N[C@H](c1cn2nc(C[C@H]3C[C@@H](C(F)(F)F)CNC3=O)c(C3CCCOC3)nc2n1)[C@H]1CCCC(F)(F)C1)c1nonc1C1CC1` (single isomer, unassigned) [Compound 126]: the IC50 was 100 to 1000 nM in assay [1] and < 100 nM in assay [2].

Turning to `CC(C)n1nccc1C(=O)N[C@H](c1cn2nc(CC3C[C@@H](C(F)(F)F)CNC3=O)c(N3CC4CC(C3)O4)nc2n1)[C@H]1CCCC(F)(F)C1` (single isomer, unassigned) [Compound 128], the IC50 was 100 to 1000 nM in assay [1] and < 100 nM in assay [2].

`CC(C)n1nccc1C(=O)N[C@H](c1cn2nc(CC3C[C@@H](C(F)(F)F)CNC3=O)c(N3CC4CC(C3)O4)nc2n1)[C@@H]1CCCC(F)(F)C1` (single isomer, unassigned) [Compound 129]: the IC50 in assay [1] is 100 to 1000 nM; in assay [2], < 100 nM.

`CC(C)n1nccc1C(=O)N[C@H](c1cn2nc(CC3C[C@@H](C(F)(F)F)CNC3=O)c(N3CC4CC(C3)O4)nc2n1)[C@H]1CCCC(F)(F)C1` (single isomer, unassigned) [Compound 130]: the IC50 was > 1000 nM in assay [1] and < 100 nM in assay [2].

Turning to `CC(C)n1nccc1C(=O)N[C@H](c1cn2nc(CC3C[C@@H](C(F)(F)F)CNC3=O)c(N3CC4CC(C3)O4)nc2n1)[C@@H]1CCCC(F)(F)C1` (single isomer, unassigned) [Compound 131], the IC50 in assay [1] is > 1000 nM; in assay [2] it was < 100 nM.

For `CC(C)n1nccc1C(=O)N[C@H](c1cn2nc(C[C@H]3C[C@@H](C(F)(F)F)CNC3=O)c(C3CCOC3)nc2n1)C1CCC(F)(F)CC1` (single isomer, unassigned) [Compound 132], the IC50 in assay [1] is 100 to 1000 nM; in assay [2] it was < 100 nM.

Consider `CC(C)n1nccc1C(=O)N[C@H](c1cn2nc(C[C@H]3C[C@@H](C(F)(F)F)CNC3=O)c(C3CCOC3)nc2n1)C1CCC(F)(F)CC1` (single isomer, unassigned) [Compound 133], for which the results for the IC50 in assay [1] and in assay [2] were 100 to 1000 nM and < 100 nM, respectively.

`O=C(N[C@H](c1cn2nc(C[C@H]3C[C@@H](C(F)(F)F)CNC3=O)c(C3CCOC3)nc2n1)C1CCC(F)(F)CC1)c1nonc1C1CC1` (single isomer, unassigned) [Compound 134]: the IC50 in assay [1] was > 1000 nM; in assay [2], < 100 nM.

Consider `O=C(N[C@H](c1cn2nc(C[C@H]3C[C@@H](C(F)(F)F)CNC3=O)c(C3CCOC3)nc2n1)C1CCC(F)(F)CC1)c1nonc1C1CC1` (single isomer, unassigned) [Compound 135], for which the IC50 in assay [1] is > 1000 nM; in assay [2], < 100 nM.

Take `CCn1nccc1C(=O)N[C@H](c1cn2nc(C[C@H]3C[C@@H](C(F)(F)F)CNC3=O)c(C3CCOC3)nc2n1)[C@H]1CC[C@H](C)CC1` (single isomer, unassigned) [Compound 138]: the IC50 in assay [1] and in assay [2] was < 100 nM in each case.

With `CCn1nccc1C(=O)N[C@H](c1cn2nc(C[C@H]3C[C@@H](C(F)(F)F)CNC3=O)c(C3CCOC3)nc2n1)[C@H]1CC[C@H](C)CC1` (single isomer, unassigned) [Compound 139], the IC50 in assay [1] and in assay [2] was < 100 nM throughout.
